In US20220064214A1, “NOVEL PEPTIDES AND USES THEREOF” (CENNA BIOSCIENCES INC., priority 2019, published 2022):
Values joined by “and” are separate entries in the source; they are usually repeats but may differ in a detail not shown here. Identical values can stand only once. Marks after values point to notes of the source that are not given here. Square brackets hold non-standard residues; d marks the D form. Peptide text beside a SMILES is read from it.

Tests used:
Aβ40 = experiment: Efficacy in reducing Aβ40 in rat plasma (ELISA); format: in vivo; conditions: 10 mg/kg SC; for reduction in Aβ40: rat plasma; for Percent Decrease in Aβ 40 in Rat Plasma: mean of 3 rats, negative = decrease
Protocol: (§1) Blood was collected through jugular vein cannulas, and the samples were collected into tubes with K2EDTA. After centrifuging at a temperature of 2 to 8° C. at 4,000×g for 5 minutes, the resulting plasma was split into equal aliquots, frozen, and stored at −60 to −80° C. One aliquot was for PK analysis and the other was for Aβ analysis (see Example 4).
Rats (n=3 per peptide) were administered with P8, 8M1D, or 8M2D (10 mg/kg) subcutaneously, and plasma were collected at 0, 6, 12, and 24 h after dosing and Aβ40 analysis was carried out by ELISA (Invitrogen).

[1] = Metabolic stability of peptides in fresh human plasma (LC/MS/MS); format: in vitro ADME; conditions: for rate at which metabolized in fresh human plasma (in words): compared among P8, 8M1 and 8M1D; for % Remaining / remaining at 3 h, 1 µM / remaining at 8 h, 1 µM / remaining at 24 h, 1 µM: fresh human plasma; for % Remaining: 0 h incubation; for remaining at 3 h, 1 µM: 3 h incubation; for remaining at 8 h, 1 µM: 8 h incubation; for remaining at 24 h, 1 µM: 24 h incubation
Protocol: P8, 8M1, and 8M1D were generated according to Example 1 with purities ranging from 98.0% to 99.0%. A primary 1.00 mM stock solution was prepared in either acetonitrile or acetonitrile:water (1:1, v/v) for each peptide. A 0.200 mM working stock was made from the primary stock in acetonitrile:water (1:1, v/v), which was used for the reactions. The primary and working stock solutions were stored at −20° C. when not in use, and they were kept at room temperature for as short a time as possible when in use. Fresh human plasma were maintained by adding sodium heparin as an anticoagulant.
The incubation procedures started when 5.00 μL of 0.2 mM (working stock solutions) of different peptides were added to 0.995 mL of fresh human plasma in a 1.7-mL snap tube. After 3, 8 and 24 hours of incubation, duplicate 50.0 μL aliquots of plasma were removed and placed into extraction tubes containing 150 μL of methanol, which served to quench any reactions, and thus incubations were ended. For each time point, the aliquotes were immediately extracted by vortex mixing and centrifugation. Resulting supernates were stored in High-Performance Liquid Chromatography (HPLC) vials and analyzed by LC/MS/MS after all samples were extracted. Valacyclovir was used as a positive control.
LC/MS/MS analysis of the incubation solutions was conducted by initial separation of the test article peaks using chromatography prior to detection by the mass spectrometer. The LC/MS system was comprised of a HPLC coupled with a TQS-Micro or Quattro Premier (Waters, Milford, Mass.). The mobile phase was nebulized using heated nitrogen in a Z spray source/interface set to electrospray in positive ionization mode for the peptides. The ionized peptides were detected using Tandem Quadropole Mass Spectrometry (MS/MS). The data was acquired using MassLynx (Waters, Milford, Mass.).
HPLC for the peptides and Valacyclovir control were performed with no guard columns, with a flow rate at 0.3 mL/min, with column temperature at 40° C., and autosampler temperature at 10° C. The column for peptides was MacMod ACE 2 Excel C18PFP, 100×2.1-mm, 2.0 μm, and the column for the control was Waters Atlantis T3, 150×2.1-mm, 5.0 μm. The injection loop and volumn for peptides were 50.0 μL and 20.0 μL respectively, and the ones for controls were 20.0 μL and 2.00 μL. For the Mass Spectrometer for the peptides and the Valacyclovir control, the source temperature was set to be 150° C., desolvation temperature was set to be 350° C., and polarity was set to be positive mode of electrospray ionization. Other parameters in HPLC and Mass Spectrometer are shown in Table 2.1, Table 2.2 and Table 3 below.

[2] = Pharmacokinetics study in rats, plasma; format: in vivo; conditions: rat; for plasma concentration: individual rats
Protocol: (§2) An in-vivo study was carried out in rats to determine the pharmacokinetics (PK) of peptides P8, 8M1D and 8M2D in plasma and CSF. Each peptide was assessed through two dosage routes, intravenous (IV) and subcutaneous (SC). Three rats were assigned to each dose group with each peptide. Total of twelve rats per peptide were used.
as §1

[3] = Pharmacokinetics study in rats, CSF; format: in vivo; design: CSF concentration, Mean IV / CSF concentration, Mean SC: unit not given here; conditions: rat; for CSF concentration, Mean IV: 10 mg/kg IV; for CSF concentration, Mean SC: 10 mg/kg SC
Protocol: as §2
CSF collection was performed by first anesthetizing animals at specified time points (see Table 5) with a mixture of 80 mg/kg ketamine and 8 mg/kg xylazine. The depth of anesthesia was monitored by toe pinches. CSF was collected via the cisterna magna (˜0.05 mL), and it was split into equal aliquots, frozen, and stored at −60 to −80° C.

γ-secretase = conditions: phase III clinical trial, cited from earlier work
[4] = 10 mg/kg IV and SC, at Cmax and most subsequent time points

**Q.** Which “reduction in Aβ40” value (Aβ40; 12 hr post dosing) does the source give for CC(C)C[C@H](NC(=O)[C@H](CCC(=O)O)NC(=O)[C@H](CCC(=O)O)NC(=O)[C@H](CC(=O)O)NC(=O)[C@H](CCC(=O)O)NC(=O)[C@H](CCC(=O)O)NC(=O)[C@H](CCC(=O)O)NC(=O)[C@H](N)CC(=O)O)C(N)=O [8M1D, dEEEDEEL-NH2] (H-[dD]EEEDEEL-NH2) here?
**A.** about 27%

**Q.** What about the “reduction in Aβ40” value (Aβ40; 24 h post dosing) of the same compound?
**A.** about 19%

**Q.** And the “Percent Decrease in Aβ 40 in Rat Plasma” value (Aβ40; 0 h)?
**A.** 0.00%

**Q.** And the “Percent Decrease in Aβ 40 in Rat Plasma” value (Aβ40; 6 h)?
**A.** −23.61%

**Q.** And the “Percent Decrease in Aβ 40 in Rat Plasma” value (Aβ40; 12 h)?
**A.** −27.34%

**Q.** And the “Percent Decrease in Aβ 40 in Rat Plasma” value (Aβ40; 24 h)?
**A.** −19.13%

**Q.** And the “stability in fresh human plasma (in words)” value [1]?
**A.** relatively stable

**Q.** What about the “rate at which metabolized in fresh human plasma (in words)” value [1] of the same compound?
**A.** slowest

**Q.** What about the “% Remaining” value [1] of the same compound?
**A.** 100%

**Q.** And the remaining at 3 h, 1 µM [1]?
**A.** 115%

**Q.** What about the remaining at 8 h, 1 µM [1] of the same compound?
**A.** 100%

**Q.** And the remaining at 24 h, 1 µM [1]?
**A.** 89.6%

**Q.** And the “exposure in plasma compared with P8 (in words)” value [2, 4]?
**A.** better exposures than P8

**Q.** What about the plasma concentration ([2]; 10 mg/kg IV, 0 hr (pre-dose)) of the same compound?
**A.** BQL

**Q.** What about the plasma concentration ([2]; 10 mg/kg IV, 0.167 hr, 10 mg/kg, in ng/mL (unit assumed)) of the same compound?
**A.** 25,600 and 23,000 and 20,200

**Q.** And the plasma concentration ([2]; 10 mg/kg IV, 0.5 hr, 10 mg/kg, in ng/mL (unit assumed))?
**A.** 7,140 and 8,630 and 6,650

**Q.** And the plasma concentration ([2]; 10 mg/kg IV, 1 hr, 10 mg/kg, in ng/mL (unit assumed))?
**A.** 1,680 and 2,160 and 1,580

**Q.** What about the plasma concentration ([2]; 10 mg/kg IV, 2 hr, 10 mg/kg, in ng/mL (unit assumed)) of the same compound?
**A.** 215 and 360 and 290

**Q.** And the plasma concentration ([2]; 10 mg/kg IV, 4 hr, 10 mg/kg, in ng/mL (unit assumed))?
**A.** 25.6 and 16.0 and 17.0

**Q.** And the plasma concentration ([2]; 10 mg/kg IV, 6 hr, 10 mg/kg)?
**A.** 2.93 ^b and 0.805 ^b and 1.48 ^b

**Q.** What about the plasma concentration ([2]; 10 mg/kg IV, 8 hr) of the same compound?
**A.** BQL

**Q.** And the plasma concentration ([2]; 10 mg/kg IV, 12 hr)?
**A.** BQL

**Q.** And the plasma concentration ([2]; 10 mg/kg IV, 24 hr)?
**A.** BQL

**Q.** What about the plasma concentration ([2]; 10 mg/kg SC, 0 hr (pre-dose)) of the same compound?
**A.** BQL

**Q.** And the plasma concentration ([2]; 10 mg/kg SC, 0.167 hr, 10 mg/kg)?
**A.** 20,500 ^a and 19,100 and 25,900

**Q.** And the plasma concentration ([2]; 10 mg/kg SC, 0.5 hr, 10 mg/kg)?
**A.** 12,300 ^a and 10,900 and 11,800

**Q.** What about the plasma concentration ([2]; 10 mg/kg SC, 1 hr, 10 mg/kg, in ng/mL (unit assumed)) of the same compound?
**A.** 5,440 and 4,310 and 3,410

**Q.** And the plasma concentration ([2]; 10 mg/kg SC, 2 hr, 10 mg/kg, in ng/mL (unit assumed))?
**A.** 1,330 and 1,570 and 642

**Q.** And the plasma concentration ([2]; 10 mg/kg SC, 4 hr, 10 mg/kg, in ng/mL (unit assumed))?
**A.** 49.8 and 75.3 and 43.9

**Q.** What about the plasma concentration ([2]; 10 mg/kg SC, 6 hr, 10 mg/kg) of the same compound?
**A.** 11.4 and 8.83 ^b and 4.66 ^b

**Q.** What about the plasma concentration ([2]; 10 mg/kg SC, 8 hr, 10 mg/kg) of the same compound?
**A.** 1.29 ^b and BQL (2×)

**Q.** What about the plasma concentration ([2]; 10 mg/kg SC, 12 hr) of the same compound?
**A.** BQL

**Q.** What about the plasma concentration ([2]; 10 mg/kg SC, 24 hr) of the same compound?
**A.** BQL

**Q.** What about the “time after dosing at which detectable in CSF” value ([3]; 10 mg/kg IV and SC) of the same compound?
**A.** ≥ 8 h

**Q.** What about the “exposure in CSF compared with P8 (in words)” value [3, 4] of the same compound?
**A.** better exposures than P8

**Q.** And the “CSF concentration, Mean IV” value ([3]; 0 hr)?
**A.** 0

**Q.** And the “CSF concentration, Mean IV” value ([3]; 0.5 hr)?
**A.** 67.8

**Q.** And the “CSF concentration, Mean IV” value ([3]; 1 hr)?
**A.** 80.8

**Q.** And the “CSF concentration, Mean IV” value ([3]; 2 hr)?
**A.** 65

**Q.** And the “CSF concentration, Mean IV” value ([3]; 4 hr)?
**A.** 23.4

**Q.** What about the “CSF concentration, Mean IV” value ([3]; 8 hr) of the same compound?
**A.** 0.913

**Q.** What about the “CSF concentration, Mean IV” value ([3]; 12 hr) of the same compound?
**A.** 0

**Q.** What about the “CSF concentration, Mean IV” value ([3]; 24 hr) of the same compound?
**A.** 0.261

**Q.** What about the “CSF concentration, Mean SC” value ([3]; 0 hr) of the same compound?
**A.** 0

**Q.** And the “CSF concentration, Mean SC” value ([3]; 0.5 hr)?
**A.** 50.9

**Q.** And the “CSF concentration, Mean SC” value ([3]; 1 hr)?
**A.** 66.1

**Q.** And the “CSF concentration, Mean SC” value ([3]; 2 hr)?
**A.** 62.9

**Q.** And the “CSF concentration, Mean SC” value ([3]; 4 hr)?
**A.** 18.9

**Q.** And the “CSF concentration, Mean SC” value ([3]; 8 hr)?
**A.** 3.85

**Q.** And the “CSF concentration, Mean SC” value ([3]; 12 hr)?
**A.** 0

**Q.** And the “CSF concentration, Mean SC” value ([3]; 24 hr)?
**A.** 0

**Q.** For H-DEEEDEEL-NH2 [8M1, DEEEDEEL-NH2], which “rate at which metabolized in fresh human plasma (in words)” value [1] is on record?
**A.** fastest

**Q.** And the “% Remaining” value [1]?
**A.** 100%

**Q.** And the remaining at 3 h, 1 µM [1]?
**A.** 87.1%

**Q.** What about the remaining at 8 h, 1 µM [1] of the same compound?
**A.** 65.1%

**Q.** And the remaining at 24 h, 1 µM [1]?
**A.** 47.1%

**Q.** Which “functional ability (in words)” value (γ-secretase; patients receiving the higher dose) does the source give for CC(C)[C@H](O)C(=O)N[C@@H](C)C(=O)N[C@@H]1C(=O)N(C)CCc2ccccc21 [semagacestat] here?
**A.** significant worsening of functional ability

**Q.** And the “effect on improving cognitive functions (in words)” value (γ-secretase; patients)?
**A.** no effects on improving cognitive functions

**Q.** And the “adverse events (in words)” value (γ-secretase)?
**A.** more adverse events including skin cancers and infections
